# In ChEMBL document CHEMBL6121063, “Identification of a Potent and Selective CDK9 Degrader as a Targeted Therapeutic Option for the Treatment of Small-Cell Lung Cancer” (J Med Chem, 2025):
# Activity calls are given as the source filed them. The rule behind the calls is not given here.
# Assays:
# [1] = target: T1, Protein cereblon/Cyclin-dependent kinase 9 (Homo sapiens, UniProt P50750+Q96SW2); assay: PROTAC activity at CRBN/CDK9 in human NCI-H69 cells assessed as induction of CDK9 degradation at 10 nM measured within 3 hrs by Western blot analysis; format: cell-based
# [2] = target: T1, Protein cereblon/Cyclin-dependent kinase 9; assay: PROTAC activity at CRBN/CDK9 in human NCI-H69 cells assessed as induction of CDK9 degradation by measuring reduction in half-life incubated upto 24 hrs in presence of cycloheximide by Western blot analysis; format: cell-based
# [3] = target: T1, Protein cereblon/Cyclin-dependent kinase 9; assay: PROTAC activity at CRBN/CDK9 in human NCI-H69 cells assessed as induction of CDK9 degradation preincubated with thalidomide for 2 hrs followed by compound addition and measured after 3 hrs by Western blot analysis; format: cell-based
# [4] = target: T1, Protein cereblon/Cyclin-dependent kinase 9; assay: PROTAC activity at CRBN/CDK9 in human NCI-H69 cells assessed as induction of CDK9 degradation preincubated with AT-7519 for 2 hrs followed by compound addition and measured after 3 hrs by Western blot analysis; format: cell-based
# NCI-H69 [5] = assay: Antiproliferative activity against human NCI-H69 cells assessed as reduction in cell viability incubated for 72 hrs in presence of thalidomide by celltiter-Glo assay; format: functional, cell-based
# NCI-H446 [6] = assay: Antiproliferative activity against human NCI-H446 cells assessed as reduction in cell viability incubated for 72 hrs in presence of thalidomide by celltiter-Glo assay; format: functional, cell-based
# [7] = target: T1, Protein cereblon/Cyclin-dependent kinase 9; assay: PROTAC activity at CRBN/CDK9 in human NCI-H69 cells assessed as increase in CDK9 ubiquitination preincubated with MG132 for 2 hrs followed by compound addition and measured after 3 hrs by co-immunoprecipitation analysis; format: cell-based
# [8] = target: T1, Protein cereblon/Cyclin-dependent kinase 9; assay: PROTAC activity at CRBN/CDK9 in human NCI-H446 cells assessed as increase in CDK9 ubiquitination preincubated with MG132 for 2 hrs followed by compound addition and measured after 3 hrs by co-immunoprecipitation analysis; format: cell-based
# [9] = target: CDK9/cyclin T1 (Homo sapiens) (UniProt O60563+P50750); assay: Inhibition of CDK9/Cyclin T1 (unknown origin) at 10 nM relative to control; format: protein-complex assay
# [10] = target: CDK12/Cyclin K (Homo sapiens) (UniProt O75909+Q9NYV4); assay: Inhibition of CDK12/Cyclin K (unknown origin) at 10 nM relative to control; format: protein-complex assay
# [11] = target: T2, Cyclin-dependent kinase 5/CDK5 activator 1 (Homo sapiens) (UniProt Q00535+Q15078); assay: Inhibition of CDK5/p25NCK (unknown origin) at 10 nM relative to control; format: protein-complex assay
# [12] = target: Cyclin-dependent kinase 4/cyclin D1 (Homo sapiens) (UniProt P11802+P24385); assay: Inhibition of CDK4/cyclin D1 (unknown origin) at 10 nM relative to control; format: protein-complex assay
# [13] = target: T2, Cyclin-dependent kinase 5/CDK5 activator 1 (Homo sapiens); assay: Inhibition of CDK5/p35NCK (unknown origin) at 10 nM relative to control; format: protein-complex assay
# [14] = target: CDK6/cyclin D1 (Homo sapiens) (UniProt P24385+Q00534); assay: Inhibition of CDK6/cyclin D1 (unknown origin) at 10 nM relative to control; format: protein-complex assay
# [15] = target: Cyclin-dependent kinase 1/cyclin B1 (Homo sapiens) (UniProt P06493+P14635); assay: Inhibition of CDK1/cyclin B1 (unknown origin) at 10 nM relative to control; format: protein-complex assay
# [16] = target: CDK6/cyclin D3 (Homo sapiens) (UniProt P30281+Q00534); assay: Inhibition of CDK6/cyclin D3 (unknown origin) at 10 nM relative to control; format: protein-complex assay
# [17] = target: CDK1/Cyclin E (Homo sapiens) (UniProt P06493+P24864); assay: Inhibition of CDK1/cyclin E1 (unknown origin) at 10 nM relative to control; format: protein-complex assay
# NCI-H446 [18] = assay: Downregulation of CDK9 protein level in human NCI-H446 cells at 10 nM incubated for 3 hrs by quantitative proteomic analysis; format: functional, cell-based
# NCI-H69 [19] = assay: Downregulation of CDK9 protein level in human NCI-H69 cells at 1 to 10 nM incubated for 8 hrs by Western blot analysis; format: functional, cell-based; details: dose 1-10 nM
# [20] = target: Cyclin-dependent kinase 9 (Homo sapiens) (UniProt P50750); assay: Inhibition of CDK9-related signaling in human NCI-H69 cells assessed as reduction in c-MYC expression level at 0.5 to 10 nM incubated for 24 hrs by Western blot analysis; format: cell-based; details: dose 0.5-10 nM
# NCI-H69 [21] = assay: Cell cycle arrest in human NCI-H69 cells assessed as increase in G1 phase population incubated for 36 hrs by PI staining based flow cytometric analysis; format: functional; details: dose 0.5-4 nM
# NCI-H446 [22] = assay: Cell cycle arrest in human NCI-H446 cells assessed as increase in G1 phase population incubated for 36 hrs by PI staining based flow cytometric analysis; format: functional; details: dose 0.5-2 nM
# NCI-H446 [23] = assay: Induction of apoptosis in human NCI-H446 cells incubated for 36 hrs by Annexin V-FITC/PI staining based flow cytometric analysis; format: functional, cell-based; details: dose 1-8 nM
# NCI-H69 [24] = assay: Induction of apoptosis in human NCI-H69 cells assessed as decrease in MCL-1 expression incubated for 36 hrs by Western blot analysis; format: functional, cell-based
# NCI-H69 [25] = assay: Induction of apoptosis in human NCI-H69 cells assessed as decrease in BCL-2 expression incubated for 36 hrs by Western blot analysis; format: functional, cell-based
# NCI-H69 [26] = assay: Induction of apoptosis in human NCI-H69 cells assessed as increase in cleaved PARP level incubated for 36 hrs by Western blot analysis; format: functional, cell-based
# NCI-H69 [27] = assay: Induction of apoptosis in human NCI-H69 cells assessed as increase in cleaved caspase-3 level incubated for 36 hrs by Western blot analysis; format: functional, cell-based
# DMS-114 = assay: Inhibition of cell invasion in human DMS-114 cells assessed as decrease in number of cells passing through upper chamber at 2to 4 nM incubated for 48 hrs by crystal violet staining based microscopic analysis; format: functional
# DMS-53 = assay: Inhibition of cell invasion in human DMS-53 cells assessed as decrease in number of cells passing through upper chamber at 2to 4 nM incubated for 48 hrs by crystal violet staining based microscopic analysis; format: functional
# [28] = target: T1, Protein cereblon/Cyclin-dependent kinase 9; assay: In vivo PROTAC activity at CRBN/CDK9 in female NU/NU mouse model xenografted with human NCI-H446 cells assessed as decrease in CDK9 expression in tumor at 12.5 to 25 mg/kg, po administered once daily for 15 days by immunohistochemical staining based analysis; format: functional, organism-based; details: dose 12.5-25 mg/kg, time 15.0 day
# NCI-H446 [29] = assay: Antitumor activity against human NCI-H446 cells expressing luciferase-GFP xenografted in female NU-NU mouse model assessed as decrease in tumor burden at 12.5 to 25 mg/kg, po administered for 19 days; format: functional, organism-based; details: dose 12.5-25 mg/kg, time 19.0 day
# [30] = target: Cyclin-Y/Cyclin-dependent kinase 16 (Homo sapiens) (UniProt Q00536+Q8ND76); details: dose 10.0 nM
# [31] = target: CDK2/Cyclin A2 (Homo sapiens) (UniProt P24941+P20248); details: dose 10.0 nM
# [32] = target: Cyclin-dependent kinase 2/cyclin E1 (Homo sapiens) (UniProt P24864+P24941); details: dose 10.0 nM
# T1 sequence (P50750 whole entry, looked up): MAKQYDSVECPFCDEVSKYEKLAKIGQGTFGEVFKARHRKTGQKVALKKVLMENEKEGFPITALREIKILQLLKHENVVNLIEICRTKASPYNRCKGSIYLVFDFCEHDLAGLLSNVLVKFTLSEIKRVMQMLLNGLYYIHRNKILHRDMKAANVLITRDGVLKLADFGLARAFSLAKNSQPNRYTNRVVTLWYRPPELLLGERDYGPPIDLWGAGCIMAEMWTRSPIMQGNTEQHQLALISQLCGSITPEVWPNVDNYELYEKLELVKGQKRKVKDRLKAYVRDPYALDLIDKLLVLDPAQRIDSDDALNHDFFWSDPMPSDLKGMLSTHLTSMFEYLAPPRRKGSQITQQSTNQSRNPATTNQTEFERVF
# T1 sequence (Q96SW2 whole entry, looked up): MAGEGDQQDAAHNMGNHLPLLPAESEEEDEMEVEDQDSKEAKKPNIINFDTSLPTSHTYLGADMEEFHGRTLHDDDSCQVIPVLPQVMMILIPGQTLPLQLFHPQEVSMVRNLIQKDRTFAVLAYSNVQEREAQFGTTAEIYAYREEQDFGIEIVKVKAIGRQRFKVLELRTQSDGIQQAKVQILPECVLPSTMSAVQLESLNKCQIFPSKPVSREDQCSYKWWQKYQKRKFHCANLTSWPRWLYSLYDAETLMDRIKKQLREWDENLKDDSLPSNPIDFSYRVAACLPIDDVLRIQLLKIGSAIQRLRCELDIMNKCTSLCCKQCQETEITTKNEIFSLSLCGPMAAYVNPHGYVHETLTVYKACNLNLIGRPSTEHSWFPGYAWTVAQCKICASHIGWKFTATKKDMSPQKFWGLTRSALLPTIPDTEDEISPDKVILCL
# T2 sequence (Q00535 whole entry): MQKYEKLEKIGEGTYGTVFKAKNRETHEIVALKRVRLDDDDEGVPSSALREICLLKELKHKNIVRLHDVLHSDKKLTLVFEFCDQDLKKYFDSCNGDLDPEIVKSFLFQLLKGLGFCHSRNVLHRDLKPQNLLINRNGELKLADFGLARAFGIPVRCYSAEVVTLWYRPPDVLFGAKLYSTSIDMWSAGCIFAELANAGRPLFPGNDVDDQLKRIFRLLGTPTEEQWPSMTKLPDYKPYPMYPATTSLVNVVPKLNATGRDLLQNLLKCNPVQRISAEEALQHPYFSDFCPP
# T2 sequence (Q15078 99-307 partner limits assumed): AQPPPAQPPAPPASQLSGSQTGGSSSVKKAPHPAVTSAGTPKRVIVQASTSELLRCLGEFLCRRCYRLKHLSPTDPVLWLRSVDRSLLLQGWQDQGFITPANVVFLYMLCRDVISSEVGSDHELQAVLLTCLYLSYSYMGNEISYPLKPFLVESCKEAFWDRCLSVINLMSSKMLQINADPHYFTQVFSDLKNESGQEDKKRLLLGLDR
# Chain of CDK1/Cyclin E (Homo sapiens) (P06493 whole entry, looked up): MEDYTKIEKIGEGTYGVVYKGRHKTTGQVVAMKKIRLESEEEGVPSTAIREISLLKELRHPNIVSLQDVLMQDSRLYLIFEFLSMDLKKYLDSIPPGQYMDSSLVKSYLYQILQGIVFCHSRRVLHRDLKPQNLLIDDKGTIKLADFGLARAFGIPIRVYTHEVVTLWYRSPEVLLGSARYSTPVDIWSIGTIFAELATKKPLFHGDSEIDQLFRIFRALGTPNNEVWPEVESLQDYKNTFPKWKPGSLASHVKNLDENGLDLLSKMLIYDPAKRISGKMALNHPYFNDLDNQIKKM
# Chain of CDK1/Cyclin E (Homo sapiens) (P24864 whole entry, looked up): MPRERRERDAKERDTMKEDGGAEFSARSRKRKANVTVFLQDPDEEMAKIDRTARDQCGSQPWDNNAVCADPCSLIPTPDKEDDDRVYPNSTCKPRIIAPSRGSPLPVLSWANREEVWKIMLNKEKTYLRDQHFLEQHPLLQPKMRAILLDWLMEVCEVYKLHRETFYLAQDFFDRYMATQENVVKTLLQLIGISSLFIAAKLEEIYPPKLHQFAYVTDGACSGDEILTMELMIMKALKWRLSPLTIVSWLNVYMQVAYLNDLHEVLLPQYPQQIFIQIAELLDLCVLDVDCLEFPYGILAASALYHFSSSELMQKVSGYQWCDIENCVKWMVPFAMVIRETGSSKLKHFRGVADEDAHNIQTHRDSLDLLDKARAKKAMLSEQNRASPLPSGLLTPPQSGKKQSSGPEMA
# Chain of Cyclin-dependent kinase 1/cyclin B1 (Homo sapiens) (P06493 whole entry, looked up): as the sequence (P06493 whole entry, looked up) above
# Chain of Cyclin-dependent kinase 1/cyclin B1 (Homo sapiens) (P14635 whole entry, looked up): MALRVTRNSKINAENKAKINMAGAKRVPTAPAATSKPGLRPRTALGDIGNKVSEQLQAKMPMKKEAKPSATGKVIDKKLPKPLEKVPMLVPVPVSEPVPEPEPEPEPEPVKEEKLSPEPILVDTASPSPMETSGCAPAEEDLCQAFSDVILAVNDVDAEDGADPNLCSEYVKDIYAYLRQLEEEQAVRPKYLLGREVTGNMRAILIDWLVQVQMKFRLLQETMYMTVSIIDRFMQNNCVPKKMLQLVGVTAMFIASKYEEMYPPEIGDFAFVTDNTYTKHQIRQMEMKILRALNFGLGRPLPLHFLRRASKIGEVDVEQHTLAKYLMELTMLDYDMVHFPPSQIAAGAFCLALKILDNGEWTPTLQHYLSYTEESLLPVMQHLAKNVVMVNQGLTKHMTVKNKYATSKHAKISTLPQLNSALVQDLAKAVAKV
# Chain of CDK12/Cyclin K (Homo sapiens) (O75909 whole entry, looked up): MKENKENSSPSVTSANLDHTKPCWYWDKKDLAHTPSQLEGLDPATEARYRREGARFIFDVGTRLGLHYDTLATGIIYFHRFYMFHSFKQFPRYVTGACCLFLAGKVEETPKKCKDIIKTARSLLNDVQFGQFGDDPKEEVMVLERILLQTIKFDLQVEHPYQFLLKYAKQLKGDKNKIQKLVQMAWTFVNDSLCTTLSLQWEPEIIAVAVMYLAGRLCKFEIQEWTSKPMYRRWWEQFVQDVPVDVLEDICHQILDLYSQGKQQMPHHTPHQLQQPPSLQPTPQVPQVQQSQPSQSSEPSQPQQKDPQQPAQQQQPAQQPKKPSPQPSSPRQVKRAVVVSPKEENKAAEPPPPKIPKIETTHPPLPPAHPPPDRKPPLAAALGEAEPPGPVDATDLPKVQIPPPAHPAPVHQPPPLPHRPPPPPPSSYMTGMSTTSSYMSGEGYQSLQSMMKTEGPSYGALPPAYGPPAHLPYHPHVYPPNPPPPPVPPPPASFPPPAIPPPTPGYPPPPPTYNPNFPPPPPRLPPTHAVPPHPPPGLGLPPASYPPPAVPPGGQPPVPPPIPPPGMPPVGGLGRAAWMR
# Chain of CDK12/Cyclin K (Homo sapiens) (Q9NYV4 whole entry, looked up): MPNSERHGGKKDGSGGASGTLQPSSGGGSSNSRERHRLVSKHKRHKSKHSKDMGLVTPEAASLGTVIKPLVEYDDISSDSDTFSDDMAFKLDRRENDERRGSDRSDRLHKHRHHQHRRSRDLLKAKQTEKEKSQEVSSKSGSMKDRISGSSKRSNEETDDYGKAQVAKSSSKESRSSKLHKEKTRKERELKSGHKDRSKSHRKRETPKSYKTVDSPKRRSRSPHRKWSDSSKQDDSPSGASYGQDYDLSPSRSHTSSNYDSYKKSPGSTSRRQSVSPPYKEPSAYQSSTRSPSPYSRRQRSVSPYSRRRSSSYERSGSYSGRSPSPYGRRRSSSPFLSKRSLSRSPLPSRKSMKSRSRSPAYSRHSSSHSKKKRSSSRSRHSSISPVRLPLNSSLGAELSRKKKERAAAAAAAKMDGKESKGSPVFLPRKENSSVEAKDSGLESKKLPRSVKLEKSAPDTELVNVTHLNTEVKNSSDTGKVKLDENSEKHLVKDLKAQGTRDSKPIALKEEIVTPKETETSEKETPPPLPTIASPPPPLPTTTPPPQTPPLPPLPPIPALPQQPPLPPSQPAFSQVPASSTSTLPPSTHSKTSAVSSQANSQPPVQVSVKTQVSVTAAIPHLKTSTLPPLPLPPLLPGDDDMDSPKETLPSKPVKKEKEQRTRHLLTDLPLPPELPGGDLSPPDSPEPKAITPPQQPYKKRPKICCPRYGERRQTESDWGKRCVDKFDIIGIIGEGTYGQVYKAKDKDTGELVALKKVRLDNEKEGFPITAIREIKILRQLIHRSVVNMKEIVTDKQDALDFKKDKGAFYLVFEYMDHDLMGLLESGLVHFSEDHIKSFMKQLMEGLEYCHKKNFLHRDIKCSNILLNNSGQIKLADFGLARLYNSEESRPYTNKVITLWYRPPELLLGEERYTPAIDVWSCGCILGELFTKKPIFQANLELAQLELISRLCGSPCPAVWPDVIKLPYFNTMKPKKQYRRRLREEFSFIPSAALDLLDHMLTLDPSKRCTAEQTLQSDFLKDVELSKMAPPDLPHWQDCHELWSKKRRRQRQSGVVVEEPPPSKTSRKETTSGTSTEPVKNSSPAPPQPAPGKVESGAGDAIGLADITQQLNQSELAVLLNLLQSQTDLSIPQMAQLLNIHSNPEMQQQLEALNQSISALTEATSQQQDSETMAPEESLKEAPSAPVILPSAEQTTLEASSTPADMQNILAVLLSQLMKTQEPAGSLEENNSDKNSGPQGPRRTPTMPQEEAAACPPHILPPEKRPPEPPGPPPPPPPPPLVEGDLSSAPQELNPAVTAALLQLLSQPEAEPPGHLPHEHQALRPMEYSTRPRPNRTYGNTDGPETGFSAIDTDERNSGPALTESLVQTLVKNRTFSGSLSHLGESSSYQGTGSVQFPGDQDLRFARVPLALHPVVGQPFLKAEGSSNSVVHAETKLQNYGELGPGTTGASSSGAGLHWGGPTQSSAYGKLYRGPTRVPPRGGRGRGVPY
# Chain of Cyclin-dependent kinase 9 (Homo sapiens) (P50750 whole entry): as the sequence (P50750 whole entry, looked up) above
structure (smiles),measurement,setting,value
O=C1CCC(Nc2cccc(N3CCN(CC4CCN(CC(=O)N5CCC(NC(=O)c6n[nH]cc6NC(=O)c6c(Cl)cccc6Cl)CC5)CC4)CC3)c2)C(=O)N1 (centres undefined),Activity,[1],Active
same,Activity,[2],Active
same,Activity,[3],inactive
same,Activity,[4],inactive
same,Activity,NCI-H69 [5],inactive
same,Activity,NCI-H446 [6],inactive
same,Activity,[7],Active
same,Activity,[8],Active
same,inhibition,[9],95%
same,inhibition,[10],38%
same,inhibition,[11],52%
same,inhibition,[12],37%
same,inhibition,[13],45%
same,inhibition,[14],34%
same,inhibition,[15],46%
same,inhibition,[16],15%
same,inhibition,[17],24%
same,Activity,NCI-H446 [18],Active
same,Activity,NCI-H69 [19],Active
same,inhibition,[20],Active
same,Activity,NCI-H69 [21],Dose-dependent-effect
same,Activity,NCI-H446 [22],Dose-dependent-effect
same,Activity,NCI-H446 [23],Dose-dependent-effect
same,Activity,NCI-H69 [24],Dose-dependent-effect
same,Activity,NCI-H69 [25],Dose-dependent-effect
same,Activity,NCI-H69 [26],Dose-dependent-effect
same,Activity,NCI-H69 [27],Dose-dependent-effect
same,inhibition,DMS-114,Active
same,inhibition,DMS-53,Active
same,Activity,[28],Active
same,Activity,NCI-H446 [29],Active
same,inhibition,[30],38%
same,inhibition,[31],33%
same,inhibition,[32],35%
